90 molecules from a melting point compilation (Tetko et al.; mined from patent text by program, amines drawn as free bases though some values may be those of a salt) can be followed below.

Usually melting point stands for the temperature of the solid-liquid transition. As for `CN(C(=O)C(C)(C)c1cc(C(F)(F)F)cc(C(F)(F)F)c1)c1cnc(N2CCOCC2)cc1-c1ccccc1Cl`, the melting point is 134 to 136 °C.

`C#CCN1CCC(C(C)(C)C)CC1` gave a melting point of 48 to 49 °C. Next, `CCOC(=O)C[C@@H]1C(=O)N(S(=O)(=O)c2ccc(OC)cc2)C=C[C@@H]1c1ccccc1`: 111 to 113 °C; `COCCNC(=O)c1cc(F)cc(-c2cccc3c(C)c(Cc4cccc(C(F)(F)F)c4)sc23)c1`: 124 to 126 °C; `CC(=O)Nc1ccc2c(c1)C(C)(C)CCC2(C)C`: 116 to 118 °C. Under `CC(C)(C)c1cc(CS[C@@H]2CCCC[C@H]2SCc2cc(C(C)(C)C)cc(C(C)(C)C)c2O)c(O)c(C(C)(C)C)c1` (relative stereo) stands 104 to 106 °C; under `COC1OC(CO)C(O)C(OC)C1O` (stereo not given), 56 to 58 °C; under `CC(C)c1cc(-c2ccccc2)nc(-c2ccc(F)cc2)c1CO`, 172 to 174 °C.

Regarding `COc1ccc(C(=O)N(C)CC(O)COc2cccc3[nH]c4ccccc4c23)cc1OC` (stereo not given), the melting point was 77 to 80 °C. The molecule `COc1cc(C(C)=O)ccc1OCCCCN1CCC(c2n[nH]c3cc(F)ccc23)CC1` registered a melting point of 158 to 160 °C. As to `COc1cccc(OC(=O)N2CCCC2=O)c1`, the melting point lay in the range of 45 to 47 °C. Next, `O=C(OCCO)c1ncn2c1[C@@H]1CCCN1C(=O)c1sccc1-2`: 182 to 184 °C; `Cc1nc2ccccn2c1-c1csc(Nc2ccc(C(=O)Nc3ccccc3N)cc2)n1`: 161 to 165 °C; `CCOC(=O)c1cnn(C)c1C(=O)Nc1ccn2nc(N(C)C)nc2c1`: 193 to 195 °C. Under `COc1ccc(-c2c(C3CCN(C)CC3)[nH]c(=O)c3ccccc23)cc1` stands 209 to 211 °C. `CCCn1nc(CO)cc1OCc1ccc2ccccc2n1` came in with a melting point of 98 to 99 °C. Molecule `N#Cc1c[nH]nc1-c1ccc([N+](=O)[O-])o1` showed a melting point of 238 to 239 °C. Under `CCOC(=O)c1c(-c2cccc(C)c2)csc1N1C(=O)c2ccccc2C1=O` stands 175 to 176 °C; under `O=C(O)c1cc(O)c(O)c([N+](=O)[O-])c1`, 224 to 226 °C; under `COCCOCn1c2ccccc2c2c(C)c(C(=O)OC)sc21`, 85.4 to 86 °C.

On to `O=C(O)C1CCCCC1n1nc(-c2c(-c3ccccc3)nn3ccccc23)ccc1=O` (stereo not given), for which the melting point came to 164 °C. Next, `Clc1cc2c(cc1Cn1ccnc1-c1ccccc1)OCO2`: 163 °C; `CCC1c2ccc(C#N)n2-c2ccc(F)cc2N1S(=O)(=O)c1ccc(O)c(C)c1` (stereo not given): 192 to 194 °C; `C=CC12CCc3cc(O)ccc3C1=CCC1(C)C(O)CCC21` (stereo not given): 149 to 150 °C. Under `O=S(=O)(Nc1nccs1)c1ccc(Nc2nc(OCC3CCCCC3)c3nc[nH]c3n2)cc1` stands 152 to 154 °C.

Molecule `CCOC(=O)c1cc2cccc(NS(C)(=O)=O)c2[nH]1` registered a melting point of 157 to 158 °C.

`O=C(O)CN1C(=O)C(=C2CCCCC2)SC1=S` came in with a melting point of 196 to 201 °C. Next, `CNC(=O)Nc1ccc2c(c1)C(CN1CCC(n3ccc4cc(Cl)ccc43)CC1)CC2` (stereo not given): 193 to 195 °C; `CCC1(O)CC(=O)OCc2c1cc1n(c2=O)Cc2cc3ccc(F)cc3nc2-1` (stereo not given): greater than 250 °C; `CCn1c2c(c3ccccc31)SCCC2(C)C=O` (stereo not given): 88.5 to 90 °C. Molecule `CCCOc1c(-c2cc(C=CC(=O)O)ccc2OC)cc(C(C)(C)C)cc1C(C)(C)C` returned a melting point of 107 to 109 °C. As to `CC(C)(C#N)NC(=O)Sc1ccccc1`, the melting point lay in the range of 152 to 155 °C.

In turn, `COc1cc(OC)nc(Sc2sccc2[N+](=O)[O-])n1` showed a melting point of 199 to 201 °C. `CCOC(=O)CC(NC(=O)c1ccccc1)C(=O)c1ccsc1` (stereo not given) registered a melting point of 62 to 63 °C. The molecule `CS(=O)(=O)c1ccc(-c2ccccc2-c2ccc(F)cc2)cc1` gave a melting point of 178 to 179 °C. Next, `N#CNC(=N)CCCSc1nccc(NC(N)=NCC(F)(F)F)n1`: 224 °C.

The molecule `COc1ccc(Sc2cncc3sc(C(N)=O)cc23)cc1` displayed a melting point of 219 to 221 °C.

On to `COC(=O)c1ccc(OCCNC(=O)c2ccc(Cl)cc2)cc1`, for which the melting point lay within 125 to 127 °C.

In turn, `Cc1ccc(CCOc2ccnc3c(F)cccc23)cc1` yielded a melting point of 89 to 90 °C. For `CCC(CCCc1cc(OC)c(OC)c(OC)c1)(c1cccs1)N(C)C` (stereo not given), the melting point fell in the range of 62 to 63 °C. Under `O=c1c2c(n(-c3ccccc3)c3ncccc13)OCC2` stands 245 to 247 °C. Next, `COc1ccc(CNc2ccccc2C(=O)Nc2cccc(C(F)(F)F)c2C)cn1`: 134 to 135 °C; `c1ccc(Oc2ccc(OCCOn3cccn3)cc2)cc1`: 83 to 85 °C; `CC(=O)Nc1ccc(C2=NN(c3nnc(C)s3)[C@H](C)Cc3cc4c(cc32)OCO4)cc1C`: 267 to 269 °C. Regarding `CC(C)C1CC(=O)C(C(=O)Nc2ccc(Cl)c(Cl)c2)C(=O)C1` (stereo not given), the melting point came out at 138 °C. Under `C=CCN1Cc2nc3c(cnn3CCCC#CC)c(N)c2C1=O` stands 138 to 140 °C.

As to `O=C(N[C@H]1CC[C@H](CCN2CCN(c3nccc4c3CCO4)CC2)CC1)c1ccc(N2CCCCC2)cc1`, the melting point is 214 °C. Turning to `CC12NCCCN1C(=O)c1ccccc12` (stereo not given), the melting point came out at 64.5 °C. Molecule `COc1cc2c(cc1-c1ccccc1F)NC(=O)CC(c1cccc(-n3ccnc3C)c1)=N2` returned a melting point of 220 to 222 °C. Under `CCN(C)c1ccc(C(=O)c2ccc(N(C)CC)cc2)cc1` stands 122 to 124 °C. Regarding `CNc1nc(-c2ccccc2)c(-c2nc3ccccc3c(=O)n2-c2cccc(C)c2)s1`, the melting point lay within 186 to 187 °C. Next, `Cc1cc(C(N)(C(F)(F)F)C(F)(F)F)cc(C)c1OCC(=O)O`: 138 °C; `O=C(c1ccc2c(c1)OCC(c1ccccc1)=N2)N1CCOCC1`: 175 to 177 °C; `CCC1SC(=O)N(Cc2ccc(C(=O)O)cc2)N=C1c1ccc(O)c(O)c1` (stereo not given): 106 °C. Next, `CC(=O)NCC1CC1c1c(Cl)ccc2nn(C)cc12` (stereo not given): 149 to 150 °C; `CCc1cc2cc([N+](=O)[O-])ccc2s1`: 55 °C. Next, `COc1ccccc1OCCCCCOc1ccc(C(=N)N)cc1`: 96 to 98 °C.

As for `Cc1oc(-c2ccccc2)nc1C=Cc1ccc(/C=C/C=C2/OC(=O)NC2=O)cc1`, the melting point fell in the range of 274 to 275 °C. Next, `CCOc1c(C)cnc(CO)c1C`: 58 to 59 °C; `O=C(O)CC1c2cc(C(F)(F)F)ccc2C(=O)N1CC(F)(F)F` (racemic): 202 to 204 °C; `COc1ccccc1-n1c(-c2cc(-c3ccc(Cl)cc3)c(N3CCOCC3)s2)nc2ccccc2c1=O`: 216 to 217 °C. Next, `O=C(Nc1cccc2[nH]ccc12)c1ccccc1OCC(O)CN1CCN(C(c2ccccc2)c2ccccc2)CC1` (stereo not given): 170 °C; `CN1CCN(Cc2ccc(-c3cc4c(Nc5ccc6[nH]ccc6c5)c(C#N)cnc4s3)nc2)CC1`: greater than 245 °C; `CCC(=O)OC1(C(=O)CCl)C(C)CC2C3CCC4CC(=O)CCC4(C)C3=CCC21C` (stereo not given): 140 to 142 °C. Under `CC(=O)c1ncccc1C(O)=NNC(=O)Nc1cc(F)cc(F)c1` stands 79 to 82 °C; under `CCNC(=O)c1c(Cl)cccc1[Si](C)(C)CBr`, 98 to 99 °C. In turn, `C/C(NC1CCCCC1)=C(\C#N)C(N)=S` came in with a melting point of 142 to 144 °C. Next, `COc1ccc2cc(-n3c(=O)[nH]c4ccccc43)cc(C)c2n1`: 280 °C. Under `O=S1(=O)NCCNc2ccc(Oc3ccccc3)cc21` stands 146 to 149 °C; under `CN(C)CCCCCC(=O)O`, 89 to 91 °C; under `CCCCCCS(=O)(=O)Oc1c(I)cc(I)cc1I`, 70 to 71 °C.

The molecule `CCOC(=O)Cc1c(C(C)C(=O)O)c2cc(OC)ccc2n1Cc1ccc(Cl)cc1` (stereo not given) displayed a melting point of 163 to 165 °C. Under `C=CCc1c(O)ccc2oc(C(=O)c3ccc(F)cc3)c(C)c12` stands 164 to 166 °C; under `c1cnc2ccc(Cn3nnc4ccc(-c5ccc(N6CCCCC6)nc5)nc43)cc2c1`, 133 to 135 °C; under `Cc1ccc2c(c1)N=Cc1cccc3c1N2CC3`, 77 to 78 °C. Consider `Cc1nc(-c2ccc(C(F)(F)F)cc2)sc1C(C)(C)Oc1cccc(COC(C)(C)C(=O)O)c1`, for which the melting point came out at 136 °C.

`C[C@@H]1C[C@H](CC2CCCCC2)C(=O)O1` (relative stereo): the melting point was 60 to 62 °C. Next, `CCCC1=C(C#N)C(c2cccc3nsnc23)c2c[nH]nc2N1` (stereo not given): 195 °C. Under `COc1cc(C=CC#N)cc(OC)c1` stands 126 °C; under `COc1ccc(-c2cncc(C#N)c2Nc2ccc3[nH]ccc3c2)cc1Br`, 148 to 150 °C. Molecule `CCC[C@H]1CC[C@H](c2ncc(C(N)=O)cn2)CC1` came in with a melting point of 234 to 235 °C.

Molecule `NC(=O)c1cc(Cl)ccc1SSc1ccc(Cl)cc1C(N)=O` registered a melting point of 278 to 282 °C.

For the molecule `Nc1nnc(-c2cc3c(Oc4ccc(Cl)cc4)cncc3s2)[nH]1`, the melting point was greater than 270 °C. Under `OC(=S)c1cc(C(F)(F)F)c(Cl)cc1Cl` stands 112 to 114 °C; under `CNCC(CNC(C)=O)c1cccc2ccc(OC)cc12` (stereo not given), 126 to 128 °C. Next, `O=C1c2ccccc2C(=O)N1C(Cc1ccccc1)C[PH](=O)O` (stereo not given): 127 to 130 °C; `CC(C)Oc1cc(-n2c(=O)[nH]c(C(F)(F)F)c(F)c2=O)c(F)cc1Cl`: 133 to 135 °C. `C=CCNc1c(F)cc2c(=O)c(C(=O)O)cn(-c3nc(N)c(F)cc3F)c2c1Cl` gave a melting point of 205 to 208 °C. The molecule `CC(C)(C)n1nc2c(S)ncnc2c1O` showed a melting point greater than 300 °C. Under `CCC(=O)Cc1cc2cc(OCCNC[C@H](O)COc3ccccc3)ccc2o1` stands 99 to 100 °C.
